28 molecules from patent US9580437B2, “Triazolopyrimidine compounds and uses thereof” (Novartis AG, priority 2014, dated 2017) can be followed below.

One experiment has as its target EED (1-441)-His protein (Homo sapiens (Human), UniProt O75530). Kind of experiment: EED-H3K27Me3 peptide competition binding assay by AlphaScreen. As to conditions: read-out: (a) IC50 EED Alphascreen binding Qualified. From the text: EED-H3K27Me3 peptide competition binding assay by AlphaScreen (α-screen)
Background: In Alpha technology, singlet oxygen from a donor bead excites a nearby acceptor bead.

In experiment [1] the target is wild type PRC2 (wtPRC2) complex (Homo sapiens (Human), UniProt O75530). Kind of experiment: EED LC-MS assay. The settings on record: read-out: (b) IC50 EED LC-MS Qualified. The class given is biochemical. As for the experimental part:
A 6 μL solution of 3 μM of the peptide substrate H3K27Me0 (histone H3[21-44]-biotin) in reaction buffer was added to initiate each reaction. […] ELISA (H3K27 Methylation) Assay

A word on the IC50: it is the point on the concentration scale where inhibition reaches its midpoint.

Chain of wild type PRC2 (wtPRC2) complex (O75530 whole entry): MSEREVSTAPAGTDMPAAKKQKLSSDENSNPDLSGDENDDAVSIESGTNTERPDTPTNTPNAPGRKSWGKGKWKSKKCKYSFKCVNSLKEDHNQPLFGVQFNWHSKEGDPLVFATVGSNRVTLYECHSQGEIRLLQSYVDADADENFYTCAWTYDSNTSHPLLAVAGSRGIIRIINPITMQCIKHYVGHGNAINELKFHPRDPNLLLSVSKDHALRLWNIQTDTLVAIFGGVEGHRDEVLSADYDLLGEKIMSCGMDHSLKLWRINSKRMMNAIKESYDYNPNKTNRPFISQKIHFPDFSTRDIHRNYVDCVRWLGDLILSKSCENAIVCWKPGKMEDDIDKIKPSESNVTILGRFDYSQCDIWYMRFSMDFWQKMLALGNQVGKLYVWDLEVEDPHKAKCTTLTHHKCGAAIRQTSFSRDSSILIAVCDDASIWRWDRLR
Chain of wild type PRC2 (wtPRC2) complex (Q15910 whole entry partner): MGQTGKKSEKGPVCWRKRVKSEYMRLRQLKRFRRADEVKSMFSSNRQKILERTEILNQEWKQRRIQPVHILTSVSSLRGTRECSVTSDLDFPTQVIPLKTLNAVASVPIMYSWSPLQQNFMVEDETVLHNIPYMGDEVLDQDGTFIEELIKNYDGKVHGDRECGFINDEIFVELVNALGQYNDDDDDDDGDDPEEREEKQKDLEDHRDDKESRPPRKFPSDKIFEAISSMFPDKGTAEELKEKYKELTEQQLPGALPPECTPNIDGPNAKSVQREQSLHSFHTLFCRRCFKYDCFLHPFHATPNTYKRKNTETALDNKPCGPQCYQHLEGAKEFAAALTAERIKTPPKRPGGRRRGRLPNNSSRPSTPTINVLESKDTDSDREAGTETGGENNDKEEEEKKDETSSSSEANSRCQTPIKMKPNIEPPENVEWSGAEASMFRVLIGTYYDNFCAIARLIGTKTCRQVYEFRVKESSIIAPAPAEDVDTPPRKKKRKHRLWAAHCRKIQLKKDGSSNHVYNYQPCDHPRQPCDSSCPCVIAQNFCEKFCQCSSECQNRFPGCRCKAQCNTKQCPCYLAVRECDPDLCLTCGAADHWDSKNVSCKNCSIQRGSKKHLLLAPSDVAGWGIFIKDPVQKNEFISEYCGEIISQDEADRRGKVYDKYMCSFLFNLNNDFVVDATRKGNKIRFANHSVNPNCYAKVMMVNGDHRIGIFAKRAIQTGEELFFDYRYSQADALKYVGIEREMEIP
Chain of wild type PRC2 (wtPRC2) complex (Q15022 whole entry partner): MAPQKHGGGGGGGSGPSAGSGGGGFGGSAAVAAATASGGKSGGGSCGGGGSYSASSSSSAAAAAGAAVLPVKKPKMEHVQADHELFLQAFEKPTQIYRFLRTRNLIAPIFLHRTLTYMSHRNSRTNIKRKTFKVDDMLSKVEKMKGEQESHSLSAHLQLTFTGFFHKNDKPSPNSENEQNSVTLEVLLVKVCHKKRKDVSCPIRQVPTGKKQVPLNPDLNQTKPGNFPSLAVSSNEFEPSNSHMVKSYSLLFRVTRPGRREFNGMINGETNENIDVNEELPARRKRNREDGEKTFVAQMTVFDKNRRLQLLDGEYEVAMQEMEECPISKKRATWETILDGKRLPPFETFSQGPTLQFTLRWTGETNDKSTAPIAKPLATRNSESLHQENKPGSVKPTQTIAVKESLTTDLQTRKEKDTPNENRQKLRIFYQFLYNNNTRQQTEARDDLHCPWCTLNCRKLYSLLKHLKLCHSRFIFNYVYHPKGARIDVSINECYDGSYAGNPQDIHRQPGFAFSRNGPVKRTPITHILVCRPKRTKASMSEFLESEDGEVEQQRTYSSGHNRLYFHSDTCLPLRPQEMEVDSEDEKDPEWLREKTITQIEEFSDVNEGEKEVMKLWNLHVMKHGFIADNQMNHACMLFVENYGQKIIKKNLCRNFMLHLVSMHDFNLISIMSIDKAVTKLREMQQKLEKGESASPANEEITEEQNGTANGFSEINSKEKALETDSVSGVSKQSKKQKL
Chain of EED (1-441)-His protein (O75530 whole entry): as the sequence (O75530 whole entry) above

Consider `FC1(F)CCN(CCc2ccc(-c3cnc(NCc4cccc5c4CCO5)n4cnnc34)cn2)C1` [Example 100, 8-(6-(2-(3,3-difluoropyrrolidin-1-yl)ethyl)pyridin-3-yl)-N-((2,3-dihydrobenzofuran-4-yl)methyl)-[1,2,4]triazolo[4,3-c]pyrimidin-5-amine], for which the IC50 on EED (1-441)-His protein came to 14 nM; in experiment [1], 31.5 nM.

`FC(F)c1ccc(-c2cnc(NCc3cccc4c3CCO4)n3cnnc23)cn1` [Example 154, 8-(6-(difluoromethyl)pyridin-3-yl)-N-((2,3-dihydrobenzofuran-4-yl)methyl)-[1,2,4]triazolo[4,3-c]pyrimidin-5-amine]: the concentration for half-maximal inhibition (IC50) at EED (1-441)-His protein came to 20.1 nM; in experiment [1], 36.9 nM.

On to `CC(=O)NCc1ccc(-c2cnc(NCc3c(F)ccc4c3CCO4)n3cnnc23)cn1` [Example 171, N-((5-(5-(((5-fluoro-2,3-dihydrobenzofuran-4-yl)methyl)amino)-[1,2,4]triazolo[4,3-c]pyrimidin-8-yl)pyridin-2-yl)methyl)acetamide], for which the results for the IC50 (on EED (1-441)-His protein; in experiment [1]) were 6 nM and 7.3 nM, respectively.

Turning to `Cc1nn(C)c(C)c1-c1cnc(NCc2cccc3c2CCO3)n2cnnc12` [Example 24, N-((2,3-dihydrobenzofuran-4-yl)methyl)-8-(1,3,5-trimethyl-1H-pyrazol-4-yl)-[1,2,4]triazolo[4,3-c]pyrimidin-5-amine], the 50% inhibitory concentration (IC50) turned out to be 30.4 nM at EED (1-441)-His protein and 37 nM in experiment [1].

Turning to `O=C1CCCN1c1cncc(-c2cnc(NCc3cccc4c3CCO4)n3cnnc23)c1` [Example 87, 1-(5-(5-(((2,3-dihydrobenzofuran-4-yl)methyl)amino)-[1,2,4]triazolo[4,3-c]pyrimidin-8-yl)pyridin-3-yl)pyrrolidin-2-one], the half-inhibitory concentration (IC50) at EED (1-441)-His protein turned out to be 41.8 nM; in experiment [1] it was 83.9 nM.

With `Cc1cncc(-c2cnc(NCc3c(F)ccc4c3CCO4)n3cnnc23)c1` [Example 232, N-((5-fluoro-2,3-dihydrobenzofuran-4-yl)methyl)-8-(5-methylpyridin-3-yl)-[1,2,4]triazolo[4,3-c]pyrimidin-5-amine], the half-inhibitory concentration (IC50) is 6.2 nM on EED (1-441)-His protein and 13.1 nM in experiment [1].

On to `O=CN1CCN(CCc2ccc(-c3cnc(NCc4cccc5c4CCO5)n4cnnc34)cn2)CC1` [Example 107, 4-(2-(5-(5-(((2,3-dihydrobenzofuran-4-yl)methyl)amino)-[1,2,4]triazolo[4,3-c]pyrimidin-8-yl)pyridin-2-yl)ethyl)piperazine-1-carbaldehyde], for which the IC50 at EED (1-441)-His protein came out at 12.4 nM; in experiment [1] it was 25 nM.

On to `O=C1CNCCN1c1ccc(-c2cnc(NCc3cccc4c3CCO4)n3cnnc23)cn1` [Example 125, 1-(5-(5-(((2,3-dihydrobenzofuran-4-yl)methyl)amino)-[1,2,4]triazolo[4,3-c]pyrimidin-8-yl)pyridin-2-yl)piperazin-2-one], for which the IC50 at EED (1-441)-His protein was found to be 8.5 nM; in experiment [1], 23.4 nM.

`OCc1ncccc1-c1cnc(NCc2c(F)ccc3c2CCO3)n2cnnc12` [Example 7, (3-(5-(((5-fluoro-2,3-dihydrobenzofuran-4-yl)methyl)amino)-[1,2,4]triazolo[4,3-c]pyrimidin-8-yl)pyridin-2-yl)methanol]: the 50% inhibitory concentration (IC50) amounted to 4.8 nM on EED (1-441)-His protein and 9.3 nM in experiment [1].

Consider `CN(C)c1cc(F)c(-c2cnc(NCc3cccc4c3CCO4)n3cnnc23)cn1` [Example 112, N-((2,3-dihydrobenzofuran-4-yl)methyl)-8-(6-(dimethylamino)-4-fluoropyridin-3-yl)-[1,2,4]triazolo[4,3-c]pyrimidin-5-amine], for which the results for the 50% inhibitory concentration (IC50) (at EED (1-441)-His protein; in experiment [1]) were 17.7 nM and 17.6 nM, respectively.

On to `Clc1ccccc1-c1cnc(NCc2cccc3c2CCO3)n2cnnc12` [Example 32, 8-(2-chlorophenyl)-N-((2,3-dihydrobenzofuran-4-yl)methyl)-[1,2,4]triazolo[4,3-c]pyrimidin-5-amine], for which the values for the IC50 (at EED (1-441)-His protein; in experiment [1]) were 43.4 nM and 22.9 nM, respectively.

For `Cc1ncc(-c2cnc(NCc3c(F)ccc4c3CCO4)n3cnnc23)c(C)n1` [Example 3, 8-(2,4-Dimethylpyrimidin-5-yl)-N-((5-fluoro-2,3-dihydrobenzofuran-4-yl)methyl)-[1,2,4]triazolo[4,3-c]pyrimidin-5-amine], the IC50 on EED (1-441)-His protein is 3.8 nM; in experiment [1], 6.4 nM.

As to `Fc1ccc2c(c1CNc1ncc(-c3cnccc3C(F)(F)F)c3nncn13)CCO2` [Example 136, N-((5-fluoro-2,3-dihydrobenzofuran-4-yl)methyl)-8-(4-(trifluoromethyl)pyridin-3-yl)-[1,2,4]triazolo[4,3-c]pyrimidin-5-amine], the IC50 on EED (1-441)-His protein is 15.9 nM; in experiment [1], 41.8 nM.

As for `Cc1cc(C2CC2)ncc1-c1cnc(NCc2c(F)ccc3c2CCO3)n2cnnc12` [Example 173, 8-(6-cyclopropyl-4-methylpyridin-3-yl)-N-((5-fluoro-2,3-dihydrobenzofuran-4-yl)methyl)-[1,2,4]triazolo[4,3-c]pyrimidin-5-amine], the IC50 at EED (1-441)-His protein is 7.5 nM; in experiment [1], 7.7 nM.

As for `Cc1nn(C[C@@H](C)O)c(C)c1-c1cnc(NCc2c(F)ccc3c2CCO3)n2cnnc12` [Example 186, (2R)-1-(4-(5-(((5-fluoro-2,3-dihydrobenzofuran-4-yl)methyl)amino)-[1,2,4]triazolo[4,3-c]pyrimidin-8-yl)-3,5-dimethyl-1H-pyrazol-1-yl)propan-2-ol], the IC50 on EED (1-441)-His protein amounted to 3.5 nM; in experiment [1], 6 nM.

Regarding `CS(=O)(=O)CCOc1ccc(-c2cnc(NCc3cccc4c3CCO4)n3cnnc23)cc1` [Example 75, N-((2,3-dihydrobenzofuran-4-yl)methyl)-8-(4-(2-(methylsulfonyl)ethoxy)phenyl)-[1,2,4]triazolo[4,3-c]pyrimidin-5-amine], the half-maximal inhibitory concentration (IC50) on EED (1-441)-His protein stood at 34 nM; in experiment [1], 37.5 nM.

With `Cc1cc(-c2cnc(NCc3cccc4c3CCO4)n3cnnc23)cnc1N1CCOCC1` [Example 73, N-((2,3-dihydrobenzofuran-4-yl)methyl)-8-(5-methyl-6-morpholinopyridin-3-yl)-[1,2,4]triazolo[4,3-c]pyrimidin-5-amine], the results for the IC50 (at EED (1-441)-His protein; in experiment [1]) were 12.5 nM and 17.4 nM, respectively.

Take `Cc1c(-c2cnc(NCc3cccc4c3CCO4)n3cnnc23)cnn1C` [Example 64, N-((2,3-dihydrobenzofuran-4-yl)methyl)-8-(1,5-dimethyl-1H-pyrazol-4-yl)-[1,2,4]triazolo[4,3-c]pyrimidin-5-amine]: the results for the half-inhibitory concentration (IC50) (at EED (1-441)-His protein; in experiment [1]) were 12.4 nM and 41.3 nM, respectively.

`COc1ccc(-c2cnc(NCc3c(F)ccc4c3CCO4)n3cnnc23)cn1` [Example 142, N-((5-fluoro-2,3-dihydrobenzofuran-4-yl)methyl)-8-(6-methoxypyridin-3-yl)-[1,2,4]triazolo[4,3-c]pyrimidin-5-amine]: the IC50 at EED (1-441)-His protein stood at 2.4 nM; in experiment [1], 5.1 nM.

As to `CC1(C)COC(c2cncc(-c3cnc(NCc4cccc5c4CCO5)n4cnnc34)c2)=N1` [Example 90, N-((2,3-dihydrobenzofuran-4-yl)methyl)-8-(5-(4,4-dimethyl-4,5-dihydrooxazol-2-yl)pyridin-3-yl)-[1,2,4]triazolo[4,3-c]pyrimidin-5-amine], the IC50 came out at 13.1 nM at EED (1-441)-His protein and 30.3 nM in experiment [1].

Turning to `c1cncc(-c2cnc(NCc3cccc4occc34)n3cnnc23)c1` [Example 213, N-(benzofuran-4-ylmethyl)-8-(pyridin-3-yl)-[1,2,4]triazolo[4,3-c]pyrimidin-5-amine], the values for the concentration for half-maximal inhibition (IC50) (at EED (1-441)-His protein; in experiment [1]) were 36.6 nM and 25.6 nM, respectively.

`Cc1cc(-c2cnc(NCc3cccc4c3CCO4)n3cnnc23)ccc1C(=O)N(C)C` [Example 49, 4-(5-(((2,3-dihydrobenzofuran-4-yl)methyl)amino)-[1,2,4]triazolo[4,3-c]pyrimidin-8-yl)-N,N,2-trimethylbenzamide]: the figures for the concentration for half-maximal inhibition (IC50) (on EED (1-441)-His protein; in experiment [1]) were 12.5 nM and 12.8 nM, respectively.

Regarding `O=C1CN(c2ccc(-c3cnc(NCc4cccc5c4CCO5)n4cnnc34)cn2)CCN1` [Example 104, 4-(5-(5-(((2,3-dihydrobenzofuran-4-yl)methyl)amino)-[1,2,4]triazolo[4,3-c]pyrimidin-8-yl)pyridin-2-yl)piperazin-2-one], the IC50 at EED (1-441)-His protein turned out to be 9.6 nM; in experiment [1] it was 12 nM.

Take `CCNC(=O)c1ccc(-c2cnc(NCc3cccc4c3CCO4)n3cnnc23)cn1` [Example 114, 5-(5-(((2,3-dihydrobenzofuran-4-yl)methyl)amino)-[1,2,4]triazolo[4,3-c]pyrimidin-8-yl)-N-ethylpicolinamide]: the IC50 at EED (1-441)-His protein was 15.4 nM; in experiment [1], 18.6 nM.

Consider `CN1CCN(c2cc(-c3cnc(NCc4cccc5occc45)n4cnnc34)ccn2)CC1` [Example 212, N-(benzofuran-4-ylmethyl)-8-(2-(4-methylpiperazin-1-yl)pyridin-4-yl)-[1,2,4]triazolo[4,3-c]pyrimidin-5-amine], for which the values for the IC50 (at EED (1-441)-His protein; in experiment [1]) were 31.2 nM and 33.8 nM, respectively.

`Cc1ccc(-c2cnc(NCc3c(F)ccc4c3CCO4)n3cnnc23)c(C)n1` [Example 167, 8-(2,6-dimethylpyridin-3-yl)-N-((5-fluoro-2,3-dihydrobenzofuran-4-yl)methyl)-[1,2,4]triazolo[4,3-c]pyrimidin-5-amine]: the IC50 on EED (1-441)-His protein is 3.3 nM; in experiment [1], 5.2 nM.

For the molecule `Cc1nn(C)cc1-c1cnc(NCc2c(F)ccc3c2CCO3)n2cnnc12` [Example 195, 8-(1,3-dimethyl-1H-pyrazol-4-yl)-N-((5-fluoro-2,3-dihydrobenzofuran-4-yl)methyl)-[1,2,4]triazolo[4,3-c]pyrimidin-5-amine], the IC50 on EED (1-441)-His protein is 5.9 nM; in experiment [1] it was 11.6 nM.

Take `c1cc(CNc2ncc(-c3ccncc3)c3nncn23)c2ccoc2c1` [Example 218, N-(benzofuran-4-ylmethyl)-8-(pyridin-4-yl)-[1,2,4]triazolo[4,3-c]pyrimidin-5-amine]: the results for the 50% inhibitory concentration (IC50) (at EED (1-441)-His protein; in experiment [1]) were 38.6 nM and 26.3 nM, respectively.
